Results: US8362074B2, “Synergistic insecticidal compositions” (priority 1999, dated 2013)

Assays:
[1] = tested on: Helicoverpa zea (cotton bollworm) larvae; test: Treated artificial diet surface test on cotton bollworm larvae; format: in vivo
Description: In this evaluation, Helicoverpa zea (cotton bollworm) larvae are obtained from a laboratory colony. Test compounds are dissolved in 1:1 v/v acetone/water. Plastic bioassay trays (C-D International, Pitman, N.J.) are used as test arenas. Each tray contains 32 open-faced wells, 4.0×4.0×2.5 cm. A portion (5 ml) of a wheat germ-soybean flour-based artificial diet (Southland Products, Lake Village, Ark.) is poured into each well. After the diet hardened, 0.4 ml of test solution is pipetted onto the diet surface in each well. Test solutions are evenly spread over surfaces of diet by picking up the tray and gently tilting it from side to side. Trays are then held in a vented area for about 2 h, until water is no longer pooled on diet surfaces. A single 4-day-old H. zea larva is then placed on the surface of diet in each well. After larval infestation, each well is covered with an adhesive, vented, clear plastic sheet.
All test arenas are held under constant fluorescent light and a temperature of about 27° C. for duration of the assay. Larval mortality is determined at 2, 3, 4 and 7 days after treatment. […] A total of 32 insects were tested for each treatment.

[2] = tested on: adult male German cockroaches (Blattella germanica); test: Treated dog chow bait test on adult male German cockroaches; format: in vivo; settings: 1.00 % active ingredient
Description: In this evaluation, adult male German cockroaches (Blattella germanica) are used. For each test, a 4.0 g portion of ground Purina Dog Chow (Hi-Pro Glo®) is treated with an acetone solution of test compound alone or in combination with a second test compound. After treatment, the acetone is evaporated and the treated dog chow is placed in a ¾ oz plastic cup which is placed in a harborage made of folded sheets of blotter paper placed in a plastic box (16″ L×11″ W×6″ H). The plastic box (test arena) is also fitted with a 1 oz narrow mouth bottle with 2 dental wicks inserted at the mouth. A control box is prepared in the same manner using ground dog chow which has been treated with reagent grade acetone. Each treatment is replicated three times. Into each test arena are placed 20 healthy adult male cockroaches which have been reared in an insectary. The test arenas are then stored at 76° F. and mortality is determined daily by visual examination.

## CC1(C)CNC(=NN=C(/C=C/c2ccc(C(F)(F)F)cc2)/C=C/c2ccc(C(F)(F)F)cc2)NC1 [Compound B, hydramethylnon]
[1]; 100 OB/ml, 2 days after treatment
  % Mortality: 3.1%
[1]; 100 OB/ml, 3 days after treatment
  % Mortality: 3.1%
[1]; 100 OB/ml, 4 days after treatment
  % Mortality: 3.1%
[1]; 100 OB/ml, 7 days after treatment
  % Mortality: 15.6%
[1]; 500 OB/ml, 2 days after treatment
  % Mortality: 0.0%
[1]; 500 OB/ml, 3 days after treatment
  % Mortality: 9.4%
[1]; 500 OB/ml, 4 days after treatment
  % Mortality: 18.8%
[1]; 500 OB/ml, 7 days after treatment
  % Mortality: 40.6%
[1]; 1000 OB/ml, 2 days after treatment
  % Mortality: 3.1%
[1]; 1000 OB/ml, 3 days after treatment
  % Mortality: 34.4%
[1]; 1000 OB/ml, 4 days after treatment
  % Mortality: 50.5%
[1]; 1000 OB/ml, 7 days after treatment
  % Mortality: 62.5%
[2]; 72 h, 3 days after treatment
  mortality at 1 % strength: 0%
[2]; 96 h, 4 days after treatment
  mortality at 1 % strength: 5%
[2]; 120 h, 5 days after treatment
  mortality at 1 % strength: 28.3%
[2]; 144 h, 6 days after treatment
  mortality at 1 % strength: 71.7%
[2]; 168 h, 7 days after treatment
  mortality at 1 % strength: 90%
[2]; 192 h, 8 days after treatment
  mortality at 1 % strength: 93.3%
